What was measured:
Format in all cases: functional
UACC-257 = assay: Cytotoxicity against human UACC257 cells assessed as cell growth at 10 uM after 48 hrs by SRB assay relative to control; conditions: UACC-257, 48 h, read-out: Activity
SK-MEL-2 = assay: Cytotoxicity against human SK-MEL-2 cells assessed as cell growth at 10 uM after 48 hrs by SRB assay relative to control; conditions: SK-MEL-2, 48 h, read-out: Activity
RXF 393 = assay: Cytotoxicity against human RXF393 cells assessed as cell growth at 10 uM after 48 hrs by SRB assay relative to control; conditions: RXF 393, 48 h, read-out: Activity
UO-31 = assay: Cytotoxicity against human UO31 cells assessed as cell growth at 10 uM after 48 hrs by SRB assay relative to control; conditions: UO-31, 48 h, read-out: Activity
SNB-19 = assay: Cytotoxicity against human SNB19 cells assessed as cell growth at 10 uM after 48 hrs by SRB assay relative to control; conditions: SNB-19, 48 h, read-out: Activity
NCI-H23 = assay: Cytotoxicity against human NCI-H23 cells assessed as cell growth at 10 uM after 48 hrs by SRB assay relative to control; conditions: NCI-H23, 48 h, read-out: Activity
HCT-15 = assay: Cytotoxicity against human HCT15 cells assessed as cell growth at 10 uM after 48 hrs by SRB assay relative to control; conditions: HCT-15, 48 h, read-out: Activity
T47D = assay: Cytotoxicity against human T47D cells assessed as cell growth at 10 uM after 48 hrs by SRB assay relative to control; conditions: read-out: Activity
ACHN = assay: Cytotoxicity against human ACHN cells assessed as cell growth at 10 uM after 48 hrs by SRB assay relative to control; conditions: read-out: Activity
RPMI-8226 = assay: Cytotoxicity against human RPMI8226 cells assessed as cell growth at 10 uM after 48 hrs by SRB assay relative to control; conditions: RPMI-8226, 48 h, read-out: Activity
A498 = assay: Cytotoxicity against human A498 cells assessed as cell growth at 10 uM after 48 hrs by SRB assay relative to control; conditions: A498, 48 h, read-out: Activity
NCI-H460 = assay: Cytotoxicity against human NCI-H460 cells assessed as cell growth at 10 uM after 48 hrs by SRB assay relative to control; conditions: NCI-H460, 48 h, read-out: Activity
KM12 = assay: Cytotoxicity against human KM12 cells assessed as cell growth at 10 uM after 48 hrs by SRB assay relative to control; conditions: KM12, 48 h, read-out: Activity
NCI/ADR-RES = assay: Cytotoxicity against human NCI/ADR-RES cells assessed as cell growth at 10 uM after 48 hrs by SRB assay relative to control; conditions: read-out: Activity
SW-620 = assay: Cytotoxicity against human SW620 cells assessed as cell growth at 10 uM after 48 hrs by SRB assay relative to control; conditions: SW-620, 48 h, read-out: Activity
U-251 = assay: Cytotoxicity against human U251 cells assessed as cell growth at 10 uM after 48 hrs by SRB assay relative to control; conditions: U-251, 48 h, read-out: Activity
BT-549 = assay: Cytotoxicity against human BT549 cells assessed as cell growth at 10 uM after 48 hrs by SRB assay relative to control; conditions: BT-549, 48 h, read-out: Activity
M14 = assay: Cytotoxicity against human M14 cells assessed as cell growth at 10 uM after 48 hrs by SRB assay relative to control; conditions: M14, 48 h, read-out: Activity
SF-539 = assay: Cytotoxicity against human SF539 cells assessed as cell growth at 10 uM after 48 hrs by SRB assay relative to control; conditions: SF-539, 48 h, read-out: Activity
IGROV-1 = assay: Cytotoxicity against human IGROV1 cells assessed as cell growth at 10 uM after 48 hrs by SRB assay relative to control; conditions: IGROV-1, 48 h, read-out: Activity
[1] = Cytotoxicity against human Hs 578T cells assessed as cell growth at 10 uM after 48 hrs by SRB assay relative to control; conditions: read-out: Activity
TK-10 = assay: Cytotoxicity against human TK10 cells assessed as cell growth at 10 uM after 48 hrs by SRB assay relative to control; conditions: TK-10, 48 h, read-out: Activity
NCI-H226 = assay: Cytotoxicity against human NCI-H226 cells assessed as cell growth at 10 uM after 48 hrs by SRB assay relative to control; conditions: NCI-H226, 48 h, read-out: Activity
MCF7 = assay: Cytotoxicity against human MCF7 cells assessed as cell growth at 10 uM after 48 hrs by SRB assay relative to control; conditions: MCF7, 48 h, read-out: Activity
SK-MEL-28 = assay: Cytotoxicity against human SK-MEL-28 cells assessed as cell growth at 10 uM after 48 hrs by SRB assay relative to control; conditions: SK-MEL-28, 48 h, read-out: Activity
HCC 2998 = assay: Cytotoxicity against human HCC2998 cells assessed as cell growth at 10 uM after 48 hrs by SRB assay relative to control; conditions: HCC 2998, 48 h, read-out: Activity
MDA-MB-435 = assay: Cytotoxicity against human MDA-MB-435 cells assessed cell growth at 10 uM after 48 hrs by SRB assay relative to control
NCI-H522 = assay: Cytotoxicity against human NCI-H522 cells assessed as cell growth at 10 uM after 48 hrs by SRB assay relative to control; conditions: NCI-H522, 48 h, read-out: Activity
Malme-3M = assay: Cytotoxicity against human MALME-3M cells assessed as cell growth at 10 uM after 48 hrs by SRB assay relative to control; conditions: read-out: Activity
MDA-MB-468 = assay: Cytotoxicity against human MDA-MB-468 cells assessed as cell growth at 10 uM after 48 hrs by SRB assay relative to control; conditions: MDA-MB-468, 48 h, read-out: Activity
HOP-62 = assay: Cytotoxicity against human HOP62 cells assessed as cell growth at 10 uM after 48 hrs by SRB assay relative to control; conditions: HOP-62, 48 h, read-out: Activity
SF-268 = assay: Cytotoxicity against human SF268 cells assessed as cell growth at 10 uM after 48 hrs by SRB assay relative to control; conditions: SF-268, 48 h, read-out: Activity
SNB-75 = assay: Cytotoxicity against human SNB75 cells assessed as cell growth at 10 uM after 48 hrs by SRB assay relative to control; conditions: SNB-75, 48 h, read-out: Activity
DU-145 = assay: Cytotoxicity against human DU145 cells assessed as cell growth at 10 uM after 48 hrs by SRB assay relative to control; conditions: DU-145, 48 h, read-out: Activity
SF-295 = assay: Cytotoxicity against human SF295 cells assessed as cell growth at 10 uM after 48 hrs by SRB assay relative to control; conditions: SF-295, 48 h, read-out: Activity

Row | Structure (SMILES) | growth at 10 µM (UACC-257) | growth at 10 µM (SK-MEL-2) | growth at 10 µM (RXF 393) | growth at 10 µM (UO-31) | growth at 10 µM (SNB-19) | growth at 10 µM (NCI-H23) | growth at 10 µM (HCT-15) | growth at 10 µM (T47D) | growth at 10 µM (ACHN) | growth at 10 µM (RPMI-8226) | growth at 10 µM (A498) | growth at 10 µM (NCI-H460) | growth at 10 µM (KM12) | growth at 10 µM (NCI/ADR-RES) | growth at 10 µM (SW-620) | growth at 10 µM (U-251) | growth at 10 µM (BT-549) | growth at 10 µM (M14) | growth at 10 µM (SF-539) | growth at 10 µM (IGROV-1) | further results
1 | Cn1cc(-c2nc(N)[nH]c(=O)c2-c2cn(C)c3ccccc23)c2ccccc21 | 95.6% | 102% | 131% | 64.6% | 111% | 95% | 117% | 93.8% | 98.5% | 111% | 112% | 90.7% | 103% | 108% | 94% | 100% | 102% | 97.6% | 141% | 68.9% | growth at 10 µM [1]: 103%; growth at 10 µM (TK-10): 82.3%; growth at 10 µM (NCI-H226): 91%; growth at 10 µM (MCF7): 77.6%; growth at 10 µM (SK-MEL-28): 118%; growth at 10 µM (HCC 2998): 120%; Activity (MDA-MB-435): 109.77%; growth at 10 µM (NCI-H522): 86.7%; growth at 10 µM (Malme-3M): 112%; growth at 10 µM (MDA-MB-468): 106%; growth at 10 µM (HOP-62): 85.3%; growth at 10 µM (SF-268): 109%; growth at 10 µM (SNB-75): 103%; growth at 10 µM (DU-145): 122%; growth at 10 µM (SF-295): 90.7%
2 | Cn1c2ccccc2c2c3nc(N)[nH]c(=O)c3c3c4ccccc4n(C)c3c21 | 79.7% | 32% | 94% | 7.16% | 122% | 65.4% | 43.7% | 75% | 29.5% | 61.4% | 114% | 40.6% | 19.9% | 48.7% | 31.6% | 76.1% | 76.6% | 34.9% | 99.1% | 65.8% | growth at 10 µM [1]: 113%; growth at 10 µM (TK-10): 50.1%; growth at 10 µM (NCI-H226): 78.1%; growth at 10 µM (MCF7): 25%; growth at 10 µM (SK-MEL-28): 91%; growth at 10 µM (HCC 2998): 60.9%; Activity (MDA-MB-435): 24.36%; growth at 10 µM (NCI-H522): 46.1%; growth at 10 µM (Malme-3M): 36.2%; growth at 10 µM (MDA-MB-468): 80.3%; growth at 10 µM (HOP-62): 95.2%; growth at 10 µM (SF-268): 73.5%; growth at 10 µM (SNB-75): 96.8%; growth at 10 µM (DU-145): 44.9%; growth at 10 µM (SF-295): 86.6%
3 | Cn1cc(-c2[nH]c(=O)[nH]c(=O)c2-c2cn(C)c3ccccc23)c2ccccc21 | 82.1% | 118% | 111% | 75.8% | 109% | 91.4% | 95% | 82.4% | 92.5% | 98.9% | 112% | 88.2% | 93.3% | 103% | 88.8% | 113% | 95.8% | 89.8% | 111% | 62.2% | growth at 10 µM [1]: 105%; growth at 10 µM (TK-10): 94.5%; growth at 10 µM (NCI-H226): 86.2%; growth at 10 µM (MCF7): 60.1%; growth at 10 µM (SK-MEL-28): 103%; growth at 10 µM (HCC 2998): 109%; Activity (MDA-MB-435): 73.39%; growth at 10 µM (NCI-H522): 93.1%; growth at 10 µM (Malme-3M): 98.6%; growth at 10 µM (MDA-MB-468): 88.5%; growth at 10 µM (HOP-62): 83.3%; growth at 10 µM (SF-268): 106%; growth at 10 µM (SNB-75): 70.2%; growth at 10 µM (DU-145): 115%; growth at 10 µM (SF-295): 97.1%
4 | Cn1c2ccccc2c2c3c(=O)[nH]c(N)nc3c3c4cccnc4n(C)c3c21 | 129% | 68.5% | 87.4% | 39.4% | 103% | 86.3% | 67.4% | 48.7% | 54.1% | 64.4% | 97.5% | 65.5% | 59% | 80.2% | 72% | 81.2% | 66% | 68.8% | 111% | 94.2% | growth at 10 µM [1]: 128%; growth at 10 µM (TK-10): 76.4%; growth at 10 µM (NCI-H226): 65%; growth at 10 µM (MCF7): 45.2%; growth at 10 µM (SK-MEL-28): 120%; growth at 10 µM (HCC 2998): 104%; Activity (MDA-MB-435): 87.02%; growth at 10 µM (NCI-H522): 35%; growth at 10 µM (Malme-3M): 119%; growth at 10 µM (MDA-MB-468): 75.1%; growth at 10 µM (HOP-62): 84.1%; growth at 10 µM (SF-268): 95.6%; growth at 10 µM (SNB-75): 74.1%; growth at 10 µM (DU-145): 83.2%; growth at 10 µM (SF-295): 94.1%
5 | Cn1cc(-c2[nH]c(=S)[nH]c(=O)c2-c2cn(C)c3ccccc23)c2ccccc21 | 94.2% | 111% | 123% | 75.8% | 105% | 94.2% | 95.2% | 98.3% | 95.5% | 91% | 102% | 93% | 97.9% | 101% | 98% | 89% | 102% | 106% | 99.1% | 75.7% | growth at 10 µM [1]: 103%; growth at 10 µM (TK-10): 96.3%; growth at 10 µM (NCI-H226): 87.1%; growth at 10 µM (MCF7): 68.2%; growth at 10 µM (SK-MEL-28): 104%; growth at 10 µM (HCC 2998): 113%; Activity (MDA-MB-435): 77.23%; growth at 10 µM (NCI-H522): 96.7%; growth at 10 µM (Malme-3M): 99.5%; growth at 10 µM (MDA-MB-468): 107%; growth at 10 µM (HOP-62): 92.3%; growth at 10 µM (SF-268): 106%; growth at 10 µM (SNB-75): 85.7%; growth at 10 µM (DU-145): 110%; growth at 10 µM (SF-295): 94.2%

— ChEMBL document CHEMBL2086254, “Synthesis and identification of novel indolo[2,3-a]pyrimido[5,4-c]carbazoles as a new class of anti-cancer agents” (Eur J Med Chem, 2012)
